Laboratory results from patent US20030175824A1, “Drug candidate screening systems based on micropatterned hydrogels and microfluidic systems” (priority 2002, published 2003).

System: murine 3T3 fibroblasts
Details: 0.05% sodium azide in PBS; cells stained red
Protocol: Hydrogel microstructures encapsulating murine 3T3 fibroblasts were fabricated using proximity photolithography. A PEG-diacrylate (PEG-DA, MW 575, Sigma-Aldrich or MW 4000, Polysciences) precursor solution containing 0.5% (w/w) DAROCUR 1173 (1-phenyl-2-hydroxy-2-methyl-1-propanone, Ciba Specialty Chemicals) as a photoinitiator was mixed with a cell suspension in cell culture media to produce a cell density about 4 to 5×10^6 cells/mL in the gel precursor solution. Fibroblasts were cultured on tissue culture polystyrene in Dulbecco's modified Eagle media (DMEM with 4.5 g/L glucose and 10% FBS, Sigma-Aldrich) and incubated at 37° C. in 5% CO2 and 95% air until near confluence. Cells were detached from culture flasks by trypsinization with 0.25% trypsin and 0.13% EDTA in phosphate buffered saline. Cells were transferred back to cell culture media and then added to the gel precursor solution. […]
The viability of individual cells in hydrogel microstructures with diameters of 600 μm and 50 μm was investigated using Live/Dead Viability/Cytotoxicity fluorescence assay (Molecular Probes, Inc.) that stains live cells green and dead cells red. […]
The viability of cells encapsulated in hydrogel was also measured using an MTT (3(4,5-dimethylthiazol-2-yl)-2,5-diphenyl tetrazolium bromide) assay.

## [N-]=[N+]=[N-] [sodium azide]
  effect on encapsulated cells (control, LIVE/DEAD staining): killed the cells
